Assay results: patent publication US9795570B2, “Modulation of macrophage phenotype by emodin” (University of South Carolina, priority 2016, dated 2017)

Experiments:
[1] = tested on: mouse peritoneal macrophages; assay: Phagocytosis assay (FITC-labeled E. coli bioparticles); format: cell-based
Description: Macrophages were seeded into a 96-well plate (2×10^5 cells/well) and were stimulated with IL4 or LPS+IFNγ for 24 h with or without emodin. Phagocytotic activity was measured using a Vybrant Phagocytosis assay kit (Molecular Probes). The medium was removed and the cells were washed with PBS. The fluorescent BioParticle suspension was added to the cells and incubated up to 6 h. After the indicated time, the BioParticle suspension was removed, any extracellular fluorescence was quenched with trypan blue, and the intracellular fluorescence was detected using a Spectramax M5 microplate reader (Molecular Devices, Sunnyvale, Calif.).

[2] = tested on: mouse peritoneal macrophages; assay: qPCR of macrophage activation genes; format: cell-based
Description: (§1) Three milliliters of 4% Thioglycolate solution was injected intraperitoneally into 8-12 week old C57BL/6 mice. Three days later, macrophages were collected by lavaging the peritoneal cavity with PBS. The cells were then resuspended in DMEM containing 10% FBS. After 2 h, non-adherent cells were washed away with PBS and the macrophages were cultured overnight in serum free DMEM. The macrophages were then treated with DMEM containing IL4 (10 ng/ml, BioAbChem Inc. Ladson, S.C.) or LPS (100 ng/ml, Sigma-Aldrich) and IFNγ (20 ng/ml, BioAbChem Inc) with or without emodin. Emodin was purchased from Nanjing Langze Medicine and Technology Co. Ltd (Nanjing, China) and dissolved in DMSO at a concentration of 10 mg/ml as a stock solution.
For qPCR, macrophages were lysed with Qiazol and RNA was extracted using Zymo research Direct-zol RNA isolation kit. cDNA was then made from 1 microgram of RNA using iScript cDNA Synthesis Kit (Bio-Rad Life Science). Run conditions were 95° C. for 10 s, 58° C. for 15 s, 70° C. for 15 s. Samples were run in duplicate on a Bio-rad CFX Real Time thermocycler.

[3] = tested on: Breast tumor cells from MMTV-PyMT mice; assay: Gene expression in ex vivo breast tumor cells (qPCR); format: cell-based, mouse
[4] = tested on: mouse peritoneal macrophages; assay: Whole genome microarray, macrophages stimulated with IL4; format: cell-based
Description: as §1
Microarray analysis was carried out as described previously, with a few alterations. Macrophages were stimulated with IL4 for 6 h or LPS+IFNγ for 24 h with or without emodin (50 μM). Samples were prepared in biological replicates of 4. Cells were lysed with Qiazol and RNA was extracted using Qiagen's miRNeasy kit. Agilent's 2100 Bioanalyzer was used to determine the quality and quantity of the RNA. […] The RNA was amplified and labeled with Agilent's Low Input Quick Amp Labeling Kit (Agilent) according to the manufacturer's instructions. Labeled RNA was then purified using Qiagen's RNeasy Mini Kit (Qiagen, Valencia, Calif.) and dye incorporation and cRNA yield were assessed. Labeled samples were hybridized to Agilent Whole Mouse Genome Microarrays 8×60K (Agilent) using Agilent's Gene Expression Hybridization Kit (Agilent) according to the manufacturer's instructions. Microarray analysis was performed using an Agilent DNA Microarray Scanner System (Cat. # G2565CA).
For microarray analysis, data was extracted from images with Feature Extractor Software version 10.7.3.1 (Agilent); background correction using detrending algorithms was performed. Subsequently, background-corrected data was uploaded into GeneSpring GX version 11.5.1 for analysis. In this process, data was log 2 transformed, quantile normalized and baseline transformed using the median of all samples. […] Differentially expressed genes were determined by analysis of the data using the Mann-Whitney unpaired statistics. A cutoff p-value of 0.05 and a fold change cutoff value of 2.0 were used to filter the data. Pathway analysis was performed using Ingenuity Pathway Analysis software.

EO771 cells = assay: Cell viability, LDH assay; format: cell-based, mouse; settings: emodin 0-100 μM, 24-48 h
Description: (§2) Tumor cells (2×10^4 EO771 or 4T1 cells) were seeded into 96 well culture plates in DMEM with 10% FBS. The cells were incubated overnight at 37° C. The medium was then removed, and the cells were washed with phosphate-buffered saline (PBS). DMEM containing varying concentrations of emodin (0-100 μM) was then added to the cells in quadruplicate. Vehicle control contained an equal volume of DMSO. Plates of cells were then incubated for 24-48 h. After an indicated period, the viability of the cells was determined using a Lactate Dehydrogenase (LDH) Cytotoxicity Detection Kit (Clontech Mountain View, Calif.) according to the manufacturer's instructions. Briefly, the supernatant was removed from each well on the plate and placed in a new well on the same plate. An equal volume of cell lysis buffer (2% triton in DMEM) was then added to each well containing the cancer cells, and the cells were incubated at room temperature for 15 min. The reaction mixture was then added to each well (cell lysate plus supernatant) and incubated for 5 min before the stop solution was added. The absorbance was measured at 490 nm on a Spectra Max M5 Microplate Reader (Molecular Devices, Sunnyvale, Calif.). The percent viability was then calculated as the ratio of LDH in the cell lysate to the total amount of LDH in the lysate plus the supernatant. The viability of each group was compared to the control.

4T1 cells = assay: Cell viability, LDH assay; format: cell-based, mouse; settings: emodin 0-100 μM, 24-48 h
Description: as §2

**Q.** `Cc1cc(O)c2c(c1)C(=O)c1cc(O)cc(O)c1C2=O` [emodin] was tested. Which “inhibition of bioparticle uptake” value ([1]; IL4 or LPS/IFNγ stimulated macrophages, emodin 50 μM 24 h) did it give?
**A.** The value was about 2 fold.

**Q.** And the “phagocytic activity of naïve cells” value ([1]; emodin alone, 6 h time point)?
**A.** The value was “increase phagocytic activity”.

**Q.** What about the “expression of polarization markers iNOS, Arg1 and YM1 in naïve macrophages” value ([2]; emodin 25 or 50 μM, 24 h) of the same compound?
**A.** Its value is “no effects”.

**Q.** And the “expression of M1 genes TNFα, CXCL2 and CXCL10, and M2 gene Mrc1” value ([2]; qPCR, LPS/IFNγ vs IL4 settings)?
**A.** Its value is “inversely regulated”.

**Q.** And the “expression of M2 genes Arg1 and Chi3I3” value ([2]; qPCR, under IL4 stimulation)?
**A.** The value was “inhibited”.

**Q.** And the “expression of receptors TLR4 and CSFr1” value ([2]; qPCR, under LPS/IFNγ or IL4 stimulation, respectively)?
**A.** The value was “inhibited the expression”.

**Q.** What about the “expression of IL1β, iNOS, IL6, MMP2 and 9” value ([2]; qPCR, under LPS/IFNγ stimulation) of the same compound?
**A.** Its value is “inhibited the expression”.

**Q.** What about the “expression of IRF5, SOCS1 and CCL2” value ([2]; qPCR, under both IL4 and LPS stimulation) of the same compound?
**A.** The value was “inhibited the expression”.

**Q.** What about the “expression of CCL2, CSF1, CD90, N-cadherin, vimentin, FoxC2 and KLF4” value [3] of the same compound?
**A.** The value was “significantly suppressed”.

**Q.** And the “fold reduction of IL4 induced expression” value ([4]; Arg1, microarray, emodin 50 μM)?
**A.** The value was 7.69 fold.

**Q.** What about the “fold increase of expression under IL4 stimulation” value (shortened to “fold increase of expression”) ([4]; CXCL2, microarray) of the same compound?
**A.** Its value is 60.6 fold.

**Q.** What about the “fold increase of expression” value ([4]; CXCL10, microarray) of the same compound?
**A.** The value was 15.5 fold.

**Q.** And the “fold reduction of IL4 induced expression” value ([4]; Ch3I3, microarray, emodin 50 μM)?
**A.** The value was 4.24 fold.

**Q.** And the “fold reduction of IL4 induced expression” value ([4]; IRF4, microarray, emodin 50 μM)?
**A.** Its value is 97.43 fold.

**Q.** And the “fold reduction of IL4 induced expression” value ([4]; Mrc1, microarray, emodin 50 μM)?
**A.** The value was 2.29 fold.

**Q.** What about the “fold reduction of IL4 induced expression” value ([4]; SOCS1, microarray, emodin 50 μM) of the same compound?
**A.** Its value is 22.9 fold.

**Q.** What about the “fold increase of expression” value ([4]; TNFα, microarray) of the same compound?
**A.** Its value is 2.7 fold.

**Q.** What about the “IL4 responsive genes whose induced changes were inhibited” value ([4]; emodin 50 μM, IL4 6 h) of the same compound?
**A.** Its value is about 60%.

**Q.** And the “Em + LPS vs. LPS/IFN (gene expression)” value ([4]; gene Arg1, microarray, emodin 50 μM)?
**A.** The value was −7.69.

**Q.** And the “Em + LPS vs. LPS/IFN (gene expression)” value ([4]; gene CCL7, microarray, emodin 50 μM)?
**A.** The value was −4.16.

**Q.** And the “Em + LPS vs. LPS/IFN (gene expression)” value ([4]; gene CCL11, microarray, emodin 50 μM)?
**A.** The value was −11.31.

**Q.** And the “Em + LPS vs. LPS/IFN (gene expression)” value ([4]; gene CCL12, microarray, emodin 50 μM)?
**A.** The value was 2.30.

**Q.** What about the “Em + LPS vs. LPS/IFN (gene expression)” value ([4]; gene CCL28, microarray, emodin 50 μM) of the same compound?
**A.** Its value is 2.27.

**Q.** And the “Em + LPS vs. LPS/IFN (gene expression)” value ([4]; gene CDH1, microarray, emodin 50 μM)?
**A.** The value was −5.72.

**Q.** What about the “Em + LPS vs. LPS/IFN (gene expression)” value ([4]; gene CDKN1A, microarray, emodin 50 μM) of the same compound?
**A.** Its value is 29.78.

**Q.** What about the “Em + LPS vs. LPS/IFN (gene expression)” value ([4]; gene CISH, microarray, emodin 50 μM) of the same compound?
**A.** Its value is −7.11.

**Q.** And the “Em + LPS vs. LPS/IFN (gene expression)” value ([4]; gene CXCL2, microarray, emodin 50 μM)?
**A.** Its value is 60.63.

**Q.** What about the “Em + LPS vs. LPS/IFN (gene expression)” value ([4]; gene CXCL10, microarray, emodin 50 μM) of the same compound?
**A.** Its value is 15.05.

**Q.** What about the “Em + LPS vs. LPS/IFN (gene expression)” value ([4]; gene CXCR1, microarray, emodin 50 μM) of the same compound?
**A.** Its value is 12.40.

**Q.** What about the “Em + LPS vs. LPS/IFN (gene expression)” value ([4]; gene Ccl2, microarray, emodin 50 μM) of the same compound?
**A.** The value was −4.26.

**Q.** And the “Em + LPS vs. LPS/IFN (gene expression)” value ([4]; gene Chi3I3, microarray, emodin 50 μM)?
**A.** The value was −4.24.

**Q.** What about the “Em + LPS vs. LPS/IFN (gene expression)” value ([4]; gene FCGR2B, microarray, emodin 50 μM) of the same compound?
**A.** Its value is −2.15.

**Q.** And the “Em + LPS vs. LPS/IFN (gene expression)” value ([4]; gene FLT1, microarray, emodin 50 μM)?
**A.** The value was −27.09.

**Q.** And the “Em + LPS vs. LPS/IFN (gene expression)” value ([4]; gene IL1R1, microarray, emodin 50 μM)?
**A.** The value was −2.15.

**Q.** What about the “Em + LPS vs. LPS/IFN (gene expression)” value ([4]; gene IL6, microarray, emodin 50 μM) of the same compound?
**A.** Its value is −5.30.

**Q.** What about the “Em + LPS vs. LPS/IFN (gene expression)” value ([4]; gene IL19, microarray, emodin 50 μM) of the same compound?
**A.** Its value is −20.01.

**Q.** And the “Em + LPS vs. LPS/IFN (gene expression)” value ([4]; gene IRF4, microarray, emodin 50 μM)?
**A.** Its value is −97.43.

**Q.** What about the “Em + LPS vs. LPS/IFN (gene expression)” value ([4]; gene IRF5, microarray, emodin 50 μM) of the same compound?
**A.** The value was −2.58.

**Q.** What about the “Em + LPS vs. LPS/IFN (gene expression)” value ([4]; gene ITGB8, microarray, emodin 50 μM) of the same compound?
**A.** Its value is −4.32.

**Q.** What about the “Em + LPS vs. LPS/IFN (gene expression)” value ([4]; gene MMP13, microarray, emodin 50 μM) of the same compound?
**A.** The value was 3.68.

**Q.** And the “Em + LPS vs. LPS/IFN (gene expression)” value ([4]; gene Mrc1, microarray, emodin 50 μM)?
**A.** Its value is −2.29.

**Q.** What about the “Em + LPS vs. LPS/IFN (gene expression)” value ([4]; gene PLA2G5, microarray, emodin 50 μM) of the same compound?
**A.** Its value is 4.26.

**Q.** What about the “Em + LPS vs. LPS/IFN (gene expression)” value ([4]; gene PTGS2, microarray, emodin 50 μM) of the same compound?
**A.** Its value is 2.56.

**Q.** What about the “Em + LPS vs. LPS/IFN (gene expression)” value ([4]; gene RBP4, microarray, emodin 50 μM) of the same compound?
**A.** The value was −15.56.

**Q.** And the “Em + LPS vs. LPS/IFN (gene expression)” value ([4]; gene SOCS1, microarray, emodin 50 μM)?
**A.** Its value is −22.90.

**Q.** What about the “Em + LPS vs. LPS/IFN (gene expression)” value ([4]; gene SOCS2, microarray, emodin 50 μM) of the same compound?
**A.** Its value is −5.47.

**Q.** And the “Em + LPS vs. LPS/IFN (gene expression)” value ([4]; gene TNF, microarray, emodin 50 μM)?
**A.** The value was 2.69.

**Q.** What about the “expression of CDKN1A (p21)” value ([4]; microarray) of the same compound?
**A.** The value was “increased the expression”.

**Q.** What about the “expression of M2 genes YM1 and Mrc1 in IL4-stimulated cells” value ([4]; microarray) of the same compound?
**A.** The value was “reducing them”.

**Q.** And the “concentration from which a slight effect on cell viability starts” value (EO771 cells)?
**A.** Its value is at least 25 µM.

**Q.** And the “concentration from which a slight effect on cell viability starts” value (4T1 cells)?
**A.** The value was at least 25 µM.
